What was measured:
[1] = biological target: Estrogen receptor beta (Homo sapiens, UniProt Q92731)
Description: Binding affinity for Human Estrogen receptor-beta

[2] = biological target: T1, Estrogen receptor (Homo sapiens, UniProt P03372)
T1 sequence (P03372 whole entry): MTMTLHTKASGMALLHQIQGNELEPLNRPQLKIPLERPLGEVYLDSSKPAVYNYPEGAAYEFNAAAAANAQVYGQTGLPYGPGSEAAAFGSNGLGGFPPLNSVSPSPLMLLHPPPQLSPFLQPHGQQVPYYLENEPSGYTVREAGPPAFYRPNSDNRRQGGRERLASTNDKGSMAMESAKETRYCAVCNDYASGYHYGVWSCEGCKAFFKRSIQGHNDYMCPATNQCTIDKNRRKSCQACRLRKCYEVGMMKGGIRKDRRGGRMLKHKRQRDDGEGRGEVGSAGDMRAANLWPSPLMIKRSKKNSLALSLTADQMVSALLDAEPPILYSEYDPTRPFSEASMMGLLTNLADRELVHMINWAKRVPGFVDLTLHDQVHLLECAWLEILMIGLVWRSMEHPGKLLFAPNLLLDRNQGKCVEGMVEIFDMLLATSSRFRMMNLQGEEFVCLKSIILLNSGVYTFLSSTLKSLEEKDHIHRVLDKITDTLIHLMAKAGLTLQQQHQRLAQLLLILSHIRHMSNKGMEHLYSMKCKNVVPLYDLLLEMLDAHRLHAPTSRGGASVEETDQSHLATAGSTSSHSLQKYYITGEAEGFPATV
Description: Binding affinity for Human Estrogen receptor-alpha

[3] = biological target: Estrogen receptor beta (Rattus norvegicus, UniProt Q62986); experiment: Binding affinity foor Rat Estrogen receptor-beta
Estrogen receptor beta (Rattus norvegicus, UniProt Q62986), sequence (Q62986 whole entry): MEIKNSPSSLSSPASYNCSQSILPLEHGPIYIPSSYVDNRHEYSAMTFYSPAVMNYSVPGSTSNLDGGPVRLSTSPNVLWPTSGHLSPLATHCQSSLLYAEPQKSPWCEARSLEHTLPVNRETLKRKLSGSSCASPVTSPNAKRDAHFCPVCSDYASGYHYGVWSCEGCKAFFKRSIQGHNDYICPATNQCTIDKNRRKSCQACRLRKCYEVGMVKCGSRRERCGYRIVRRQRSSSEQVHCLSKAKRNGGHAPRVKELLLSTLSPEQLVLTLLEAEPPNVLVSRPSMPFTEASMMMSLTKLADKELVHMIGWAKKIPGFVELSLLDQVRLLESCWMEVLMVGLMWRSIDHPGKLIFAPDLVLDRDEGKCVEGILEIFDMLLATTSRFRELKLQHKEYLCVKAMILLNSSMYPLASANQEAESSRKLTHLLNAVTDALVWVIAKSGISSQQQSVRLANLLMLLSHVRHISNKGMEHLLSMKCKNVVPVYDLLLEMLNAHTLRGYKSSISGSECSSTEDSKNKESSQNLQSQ

[4] = biological target: T2, Estrogen receptor (Rattus norvegicus, UniProt P06211); experiment: Binding affinity for Rat Estrogen receptor-alpha
T2 sequence (P06211 whole entry): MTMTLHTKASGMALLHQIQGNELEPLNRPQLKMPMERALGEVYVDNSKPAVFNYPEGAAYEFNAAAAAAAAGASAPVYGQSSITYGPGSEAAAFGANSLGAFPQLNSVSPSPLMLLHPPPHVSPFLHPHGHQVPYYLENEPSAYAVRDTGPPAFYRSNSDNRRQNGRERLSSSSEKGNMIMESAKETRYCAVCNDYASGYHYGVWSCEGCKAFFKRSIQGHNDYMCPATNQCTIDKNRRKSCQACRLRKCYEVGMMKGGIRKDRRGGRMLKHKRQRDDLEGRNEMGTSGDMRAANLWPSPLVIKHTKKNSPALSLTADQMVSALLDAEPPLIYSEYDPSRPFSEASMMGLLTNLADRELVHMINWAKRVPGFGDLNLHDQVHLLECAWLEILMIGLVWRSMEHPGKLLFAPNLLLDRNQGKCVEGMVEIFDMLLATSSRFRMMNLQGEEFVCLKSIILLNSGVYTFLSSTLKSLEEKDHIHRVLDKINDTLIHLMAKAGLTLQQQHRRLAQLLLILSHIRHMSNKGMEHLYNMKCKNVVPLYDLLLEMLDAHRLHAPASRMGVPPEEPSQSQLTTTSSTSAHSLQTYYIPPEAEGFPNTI

Estrogen receptor beta (Homo sapiens, UniProt Q92731), sequence (Q92731 whole entry): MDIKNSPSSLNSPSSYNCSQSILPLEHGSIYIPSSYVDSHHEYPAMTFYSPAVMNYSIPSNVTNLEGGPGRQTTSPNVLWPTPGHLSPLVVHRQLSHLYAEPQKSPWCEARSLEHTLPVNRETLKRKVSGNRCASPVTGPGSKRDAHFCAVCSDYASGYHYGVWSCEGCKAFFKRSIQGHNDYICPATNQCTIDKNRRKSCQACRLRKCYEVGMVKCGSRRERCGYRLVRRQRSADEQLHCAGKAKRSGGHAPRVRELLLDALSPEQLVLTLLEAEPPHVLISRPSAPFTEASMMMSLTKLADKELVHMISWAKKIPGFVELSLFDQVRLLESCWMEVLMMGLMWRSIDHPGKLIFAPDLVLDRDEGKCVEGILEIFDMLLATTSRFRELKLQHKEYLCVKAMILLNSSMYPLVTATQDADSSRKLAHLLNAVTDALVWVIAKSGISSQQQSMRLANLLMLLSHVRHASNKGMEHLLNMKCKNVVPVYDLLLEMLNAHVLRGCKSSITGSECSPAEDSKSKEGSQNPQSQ

SMILES	IC50 [1] [µM]	IC50 [2] [µM]	IC50 [3] [µM]	IC50 [4] [µM]
Oc1cccc(C2=Cc3cc(O)ccc3C23Cc2ccccc2C3)c1	0.023	0.028	0.029	0.034
CC1=C(c2ccc(O)cc2)C2(Cc3ccccc3C2)c2ccc(O)cc21	0.0059	0.019	0.0012	0.0022
Oc1cccc(C2=Cc3ccc(O)cc3C23Cc2ccccc2C3)c1	0.012	0.031	0.015	0.016
Oc1ccc(C2=Cc3cc(O)ccc3C23Cc2ccc(OCCN4CCCCC4)cc2C3)cc1 (centres undefined)	0.0019	0.001	0.0027	0.0017
Oc1ccc(C2=Cc3cc(O)ccc3C23Cc2ccccc2C3)cc1	0.0021	0.0043	0.0011	

Further lines, results first:

IC50 [1] [µM]	IC50 [2] [µM]	IC50 [3] [µM]	IC50 [4] [µM]	SMILES
0.021	0.024			Oc1ccc2c(c1)C=C(c1ccccc1)C21Cc2ccccc2C1
> 10	> 10	> 10	> 10	C1=C(c2ccccc2)C2(Cc3ccccc3C2)c2ccccc21
0.429	0.058	1.07	0.114	Oc1ccc2c(c1)CC1(C2)C(c2ccccc2)=Cc2ccccc21 (centres undefined)
